Test results taken from US20240350647A1, “STING SENSITIZING AGENTS” (STipe Therapeutics ApS, priority 2023, published 2024).
Where a SMILES comes first, the peptide text is derived from it. Bridges are numbered along the chain shown (N, C = ends). [ ]: non-standard residue; d: D form. The star is where a group is joined. C16 diacid = O=C(O)CCCCCCCCCCCCCCC(=O)*; AEEA = NCCOCCOCC(=O)O

Legend:
CD4+ T cells = test: Dendritic Cell-T cell (DC-T) proliferation assay (ProImmune); details: 22 donors; Percentage Stimulation above Background ≥0.5%, SEM=2; peptides 0.34 μM
Source text: A panel of peripheral blood mononuclear cell (PBMC) samples from healthy human donors was selected from the ProImmune Ltd (UK) cell bank. Each PBMC sample was HLA (Human Leukocyte Antigen)-typed and stored in liquid nitrogen (vapor-phase) prior to use. The panel was selected so that HLA class II alleles known to be highly expressed in the global population were well represented (data not shown). Donors were predominantly selected by DRB1 allele expression.
A Dendritic Cell-T cell (DC-T) proliferation assay (ProImmune Ltd) was used to identify the presence or potential T cell epitopes within the peptides. Adherent donor PBMCs were cultured with appropriate growth factors to generate monocyte-derived DCs. DCs were then loaded with a control (control 1 and control 2), the peptide (Agent 1, Agent 2, and Agent 3, see FIG. 8A) or left untreated. The peptides were loaded at a final concentration of 0.34 μM.
Mature antigen-loaded DCs were then co-cultured at a fixed ratio with autologous CFSE-labelled T cells in multi-well plates. Each test condition was set up in eight replicate wells and cells were incubated for 7 days. At the end of the incubation period, cell samples were stained with anti-CD4 antibody, then washed and fixed for by flow cytometric analysis. Proliferation was determined by measuring a decrease in CFSE intensity.
Data were compiled to determine antigen-induced proliferation per individual donor, calculated as Percentage Stimulation above Background. The frequency of positive donor cell responses (Percentage Antigenicity) was calculated as the proportion of responding donors out of total donors. Values were then standardized against the strength of response (an average of the Percentage Stimulation value obtained across accepted donors for each protein) to give a response index (RI).
Data obtained by flow cytometric evaluation of cell samples was analyzed using FlowJo Software (Tree Star, Inc.). The number of CFSE-dim (i.e., proliferating) cells was determined for each sample in eight replicate wells. Counts for the CD4^+ CFSE dim population in each sample were expressed as a proportion of the total CD4^+ population. The eight replicate values were then used to calculate Percentage Stimulation above Background (proportion of CD4^+ CFSE dim cells with antigen stimulation minus the proportion of CD4^+ CFSE dim cells without antigen stimulation).
Background threshold values are based on data from unstimulated cells for which a maximum acceptable resting proliferation threshold is established.
In evaluating antigenicity, it is also appropriate to take account of the frequency of donor cell responses across the study cohort. A positive response (Percentage Stimulation above Background ≥0.5%) in 2 or more independent donor samples is considered indicative of a potential T cell epitope.
Depending on the size of the study, (20, 40 or 50 donors), two responding donors sets a threshold of 10%, 5% or 4% respectively. Thus, following calculation of Percentage Stimulation above Background, the frequency of positive donor cell responses (Percentage Antigenicity) is expressed as the proportion of responding donors out of total accepted donors screened.
When calculating the antigenicity of a protein it is important to consider the strength of a response as well as the frequency of that response. This is because some binding responses may be pan-allele, but these responses may not be very strong. The strength of positive donor cell responses was determined by taking an average of the percentage stimulation value obtained across accepted donors for each protein. Determining a Response Index (RI) through the multiplication of strength and frequency values is more representative of the level of antigenicity.

FIG. 10A = details: mouse, in vivo, iv, 10 mg/kg
Procedure: Table printed on a drawing sheet, FIG. 10A
The patent's description of the figure: FIGS. 10A-10C. Pharmacokinetic profile and parameter for peptides after intravenous administration. FIG. 10A) Mouse PK data (10 mg/kg, bolus IV, n=3 per timepoint). FIG. 10B) Rat PK data (10 mg/kg, bolus IV, n=3 per timepoint). FIG. 10C) Non-human primate (NHP) PK data (4 mg/kg, 30 min IV infusion, n=3). Error bars represent the standard deviation (SD).
First reader's note: Mouse PK parameters; the legend of the plot on the same sheet gives 10 mg/kg (IV) for both agents.

[1] = Pharmacokinetics after intravenous bolus, rat; assay type: in vivo; details: 10 mg/kg bolus IV
Procedure: Test agents were formulated in 2% (v/v) propylene glycol in 25 mM HEPES, pH 7.4 and administered with a bolus injection at 10.0 mg/kg via the tail vain to male CD-1 mice (Charles River Laboratories) or male Wistar rats (Charles River Laboratories), or with a 30-min intravenous infusion at 4 mg/kg to male cynomolgus monkeys.
Blood samples were collected at 2.5, 5, 10, 30, 60, 120, 240 and 480 minutes after administration (mouse and rat), or at 5, 15, 30, 60, 120, 240, 360, 480 and 1440 min (Agent 1) or at 5, 15, 30, 45, 60, 90, 150, 240 and 480 min (Agent 2) after the start of infusion in monkeys. Samples were immediately mixed with a protease inhibitor cocktail (Roche cOmplete™ EDTA-free) before being cooled and centrifuged for plasma separation. Plasma samples were frozen and stored at −20° C. until analysis.
To rat samples, blank rat plasma was added up to a volume of 100 μl. […]
Mouse and rat samples: Separation was done with a C18 column (Phenomenex Kinetex XB—C18 (100×2.1 mm, 1.7 μm)), using a gradient between 1% formic acid in water and 2% DMSO in acetonitrile (Agent 1) or acetonitrile (Agent 2). […] The range of quantitation was 4-20,000 ng/mL.
Non-compartmental PK analysis on plasma concentration versus time data was analyzed by non-compartmental approaches using the WinNonlin software program (version 6.3 or above, Pharsight, Mountain View, CA). […]

For `CC[C@H](C)[C@H](NC(=O)[C@H](CC(N)=O)NC(=O)[C@H](CCCCN)NC(=O)[C@H](C)NC(=O)[C@H](CCCCN)NC(=O)[C@H](CCCCN)NC(=O)COCCOCCNC(=O)COCCOCCNC(=O)CCCCCCCCCCCCCCC(=O)O)C(=O)N[C@H](C(=O)N[C@@H](CC(C)C)C(=O)N[C@@H](CC(C)C)C(=O)N[C@@H](CCCCN)C(=O)NCC(=O)N[C@@H](CC(C)C)C(=O)N[C@@H](CCC(=O)O)C(=O)N[C@H](C(=O)N[C@H](C(=O)N[C@@H](CC(N)=O)C(=O)N[C@@H](CC(=O)O)C(=O)N[C@@H](Cc1c[nH]c2ccccc12)C(=O)N[C@@H](Cc1c[nH]cn1)C(=O)N[C@@H](Cc1ccccc1)C(=O)N[C@H]1CSSC[C@@H](C(N)=O)NC(=O)[C@@H](CCCNC(=N)N)NC(=O)[C@H](CCCNC(=N)N)NC(=O)[C@@H](CCCCN)NC(=O)[C@H](CCCCN)NC(=O)[C@@H](CCCNC(=N)N)NC(=O)CNC(=O)[C@@H](CCCNC(=N)N)NC(=O)[C@H](CCCNC(=N)N)NC(=O)[C@@H](CCCNC(=N)N)NC1=O)[C@@H](C)CC)C(C)C)C(C)C` [Agent 1] ({C16 diacid-AEEA-AEEA}-KKAKNIVLLKGLEVINDWHFC[dR]R[dR]G[dR]K[dK]R[dR]C-NH2; disulfide 21-31), the “Response Index (RI)” value (CD4+ T cells) was 0.294, the percentage antigenicity (CD4+ T cells) was 22.73% and the C0 (FIG. 10A) was 30500 ng/mL. For the same molecule, the “increase in exposure (AUC0-inf) compared to Agent 2, at equal dose” value [1] was ~27 fold.
